Type in all cases: physicochemical
Series [1] can be described thus: H.S.I.T. rating versus SBE concentration (FIG. 3). The text has this: FIG. 3 depicts a chart of the relationship between concentration of SBE cyclodextrin and H.S.I.T. (HALF-SHELL integrity test) rating for HGC (hard gelatin capsule From […]), HGS (hard gelatin capsule from SHIONOGI), HPC (hard hydroxypropyl methylcellulose shell from […]), and HPS (hard hydroxypropyl methylcellulose shell from SHIONOGI), and SSS (soft starch shell […]). The stability obtained was dependent upon the composition of the capsule gel.

The nature of series [2]: H.S.I.T. with SAE-CD, PVP and water fill compositions. The protocol: FIGS. 10a-10i depict ternary graphs correlating the concentration of SAE-CD, water and PVP in a fill composition to the H.S.I.T. rating of a soft shell capsule exposed to the fill composition. Aqueous fill solutions comprising differing amounts of PVP, SAE-CD and water were prepared. The stability tests were conducted as described below. The capsules described herein were used: SHIONOGI HGC (hard gelatin capsule) (FIG. 10A), […] HPMC hard shell capsule (FIG. 10b), SHIONOGI HPMC hard shell capsule (FIG. 10C), […] HGC (FIG. 10D), VEGAGEL hard shell capsule (FIG. 10E), hydrophilic fill-grade CARDINAL SGC (soft gelatin capsule) (FIG. 10f), lipophilic fill-grade CARDINAL SGC (FIG. 10g), hydrophilic fill-grade BANNER SGC (FIG. 10h), and lipophilic fill-grade BANNER SGC (FIG. 10i). No other shell-stabilizing material(s) was (were) included in the fill compositions evaluated. The results varied according to the capsule used. Stabilized aqueous fill composition-containing capsule formulations can be achieved with each capsule if one or more of the following fill compositions detailed below are used. • 1. Water comprises ≧55% of the fill composition, and the combination of SAE-CD, PVP, one or more optional excipients and one or more optional active agents comprises ≧45% of the fill composition; wherein SAE-CD can comprise up to 90% (85%, 83%, or 80%) of the weight of the fill composition, and PVP can comprise less than 90%, respectively, of the weight of the fill composition, provided that the fill composition comprises >≧35% PVP when SAE-CD comprises […]; ≦15% of the weight of the fill composition, and wherein both PVP (preferably water soluble or water swellable) and SAE-CD are present. • 2. Water comprises ≦45% of the fill composition, and the combination of SAE-CD, PVP, one or more optional excipients and one or more optional active agents comprises ≧55% of the fill composition; wherein SAE-CD can comprise up to 90% (85%, 83%, or 80%) of the weight of the fill composition, and PVP can comprise less than 90%, respectively, of the weight of the fill composition, provided that the fill composition comprises ≧35% PVP when SAE-CD comprises ≦20% of the weight of the fill composition, and wherein both PVP (preferably water soluble or water swellable) and SAE-CD are present. • 3. […]

Series [3] in a line: Shell stability toward aqueous fill composition, statements on soft gelatin capsules. As to conditions: for stability provided to capsules: about ≧50% wt.
Series [4] in a line: Hard shell capsule stability in aqueous SBE-CD solutions. As to conditions: hardcap. How it is done: Two types of hard shell capsules obtained from […] were evaluated. A conventional hard gelatin capsule (HCAP) and a hard HPMC (hydroxypropyl methylcellulose) capsule (VCAP) were evaluated under identical conditions using aqueous solutions differing in the concentration of SBE-CD (sulfobutyl ether cyclodextrin).

The mark [5] stands for this setting: SHIONOGI HPMC hard shell capsule.

Some results are limits rather than exact numbers.

With sulfobutyl ether cyclodextrin [SAE-CD], the “stability provided to capsules” value is reported as “at least a one-week stability” in series [1] (SBE concentration of about ≧60% wt., hard gelatin capsules); “at least a two-week stability” in series [1] (hard hydroxypropyl methylcellulose capsules); “at least a one week stability” in series [3] (LFB and LFC soft gelatin capsules as printed, FIG. 2); “at least a one week stability” in series [3] (LFB and LFC soft gelatin capsules, FIG. 1). Besides, the “content in fill composition for an HSIT rating of at least 3” value in series [2] (SHIONOGI HGC) and in series [2] (setting [5]) was “≧6%” throughout. For the same compound, in series [3] (50% wt. or more based upon total weight of water and SAE-CD or of the fill composition), the “shelf-life of soft gelatin capsules” value is “at least one week”. Moreover, in series [3] (fill composition comprising SBE-CD, PEG and water, FIG. 8), the “water activity of fill composition that forms a stable soft gelatin capsule formulation” value is recorded as not above 0.90±0.02. The “stability of shell toward fill composition” value in series [3] (soft gelatin shells from BANNER PHARMACAPS, less than 40% by wt. SAE-CD) was “unstable”; in series [3] (soft gelatin shells from BANNER PHARMACAPS, ≧50% wt. SAE-CD), “stable for at least one week”; in series [3] (soft gelatin shells from BANNER PHARMACAPS, ≧55% wt. SAE-CD) it was “stable for at least ten days”; in series [3] (soft gelatin shells from BANNER PHARMACAPS, ≧60% wt. SAE-CD), “stable for at least three weeks”; in series [3] (soft gelatin shells from CARDINAL HEALTH, less than 40% by wt. SAE-CD), “unstable”; in series [3] (soft gelatin shells from CARDINAL HEALTH, ≧50% wt. SAE-CD), “stable for at least one week”. Moreover, the “stability of shell toward fill composition” value in series [3] (soft gelatin shells from CARDINAL HEALTH, ≧55% wt. SAE-CD) is listed as “stable for at least two weeks”. For the same compound, the “time the capsules were stable” value in series [3] (soft gelatin shells from CARDINAL HEALTH, ≧60% wt. SAE-CD) is “at least 21 days”. The “water activity of fill composition that provides an increase in the stability of the shell” value in series [3] (soft-gelatin capsule, the agent alone in water) is “less than 0.95”. In addition, the Observations entry in series [4] (30% SBE solution) was “deformed/bends”; in series [4] (40% SBE solution), “deformed/closed”; in series [4] (50% SBE solution), “deformed/closed”; in series [4] (60% SBE solution) it was “closed/stuck”. Also, the failure time in series [4] (30% SBE solution) turned out to be 24 h; in series [4] (40% SBE solution) it was 48 h; in series [4] (50% SBE solution), 48 h; in series [4] (60% SBE solution) it was 96 h. For the same compound, the size is 2 × × length in series [4] (30% SBE solution), more than 2 × × width in series [4] (40% SBE solution), 2 × × width in series [4] (50% SBE solution) and 2 × × width in series [4] (60% SBE solution).

As to `O` [Water], the “content in fill composition for an HSIT rating of at least 3” value in series [2] (SHIONOGI HGC) is “≦54%”; in series [2] (setting [5]), “≦60%”.

Values taken from patent US7829114B2, “Capsules containing aqueous fill compositions stabilized with derivatized cyclodextrin” (CyDex Pharmaceuticals, Inc., priority 2002, dated 2010).
